pIC50: −log10 of the molar value.
How the values were obtained:
Assay type in all cases: biochemical
IDH1 mutant (R132H) = molecular target: T1, IDH1 mutant (R132H) (Homo sapiens, UniProt O75874, R132H); assay: Mutant IDH1-R132H Fluorescence Assay (Resazurin based); details: 10 nM IDH1 R132H, 4 mM α-ketoglutarate, NADPH, 1.5 h at room temperature
T1 construct: purchased BPS Bioscience 71099-2
Summary of the method: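 Recombinant IDH1 R132H (10 nM) was run with α-ketoglutarate (4 mM) and NADPH ([…]) for 1.5 h at room temperature in Tris pH buffer with MgCl2, BSA and mercaptoethanol. Remaining NADPH was detected via diaphorase/resazurin fluorescence (ex 540/em 590 nm). IC50 came from a 4-parameter logistic fit.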

IDH2 mutant (R140Q) = molecular target: T2, IDH2 mutant (R140Q) (Homo sapiens, UniProt P48735, R140Q); assay: Mutant IDH2-R140Q Fluorescence Assay (Resazurin based); details: 5 nM IDH2 R140Q, 4 hr pre-incubation, 1 mM α-ketoglutarate, 5 μM NADPH, 2 h
T2 construct: purchased BPS Bioscience 71100-2
T2 sequence (P48735 40-452 R140Q): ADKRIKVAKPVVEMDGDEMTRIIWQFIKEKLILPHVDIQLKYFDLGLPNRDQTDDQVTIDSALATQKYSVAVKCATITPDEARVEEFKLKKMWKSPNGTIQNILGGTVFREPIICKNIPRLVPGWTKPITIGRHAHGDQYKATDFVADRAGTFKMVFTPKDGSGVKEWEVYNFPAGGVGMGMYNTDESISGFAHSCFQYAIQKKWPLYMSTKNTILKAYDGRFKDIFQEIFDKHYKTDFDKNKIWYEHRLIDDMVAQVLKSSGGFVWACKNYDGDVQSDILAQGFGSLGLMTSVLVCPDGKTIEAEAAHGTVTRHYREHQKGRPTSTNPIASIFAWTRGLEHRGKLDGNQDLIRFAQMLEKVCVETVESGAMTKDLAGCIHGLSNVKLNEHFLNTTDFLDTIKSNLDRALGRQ
Procedure: IC50 values of compounds against IDH2 mutant (R140Q) were determined by Resazurin based Fluorescence assay. Assay was performed in Buffer (25 mM Tris HCl, 150 mM NaCl, 10 mM MgCl2, 0.03% BSA, 2 mM 1-mercaptoethanol) where total reaction volume was 12.5 μL in low-volume 384-well plates (Cat #4511, Corning). Serially diluted compounds (3-fold) were pre-incubated with IDH2 R140Q mutant enzyme (5 nM; Cat #71100-2, BPS Bioscience) for 4 hr at RT (25° C.) followed by addition of cocktail of α-ketoglutarate (1 mM; Cat #75892-25G, Sigma), and NADPH (5 μM; Cat # N1630-100MG, Sigma) with buffer in dark at room temperature for 2 h. After 2 h incubation, 6.25 μL detection solution containing Resazurin (30 μM; (Cat #62758-13-8, Sigma) and Diaphorase (40 ug/ml; Cat # D2197-300UN, Sigma) in buffer was added and incubated for 15 min. Readings were taken in a Synergy Neo Plate reader (BioTek, Winooski) at single excitation of 540 nm and emission at 590 nm respectively.
The % activity of test samples was calculated as (Sample−Min)×100/(Max−Min). [Max: DMSO control, complete reaction with enzyme with DMSO and Min: No enzyme with DMSO]. Percent inhibition (100−% activity) was fitted to the “four-parameter logistic model” in XLfit for determination of IC50 values.

IDH1-WT = molecular target: T3, IDH1-WT (Homo sapiens, UniProt O75874); assay: IDH1-WT Fluorescence Assay (Resazurin based); details: 1 nM IDH1-WT, 200 μM isocitrate, 15 μM NADP+, 30 min at room temperature
T3 construct: purchased BPS Bioscience 71075-2
Procedure: IC50 values of compounds against IDH1-WT was determined by Resazurin based Fluorescence assay. Assays were performed in Buffer (50 mM Tris HCl, 10 mM MgCl2, 0.03% BSA, 2 mM ß-mercaptoethanol) where total reaction volume was 25 μL in low-volume 96-well plates. Serially diluted compounds (3-fold) in DMSO (0.5% in final reaction) were incubated with cocktail of isocitrate (200 μM; Cat # I1252-1G, Sigma), NADP^+ (15 μM; Cat # N0505-500MG, Sigma) and buffer for 5 min, following addition of IDH1-WT enzyme (1 nM; Cat #71075-2, BPS Bioscience) and incubated in dark at room temperature for 30 min. After that, 12.5 μL detection solution containing Resazurin (60 μM; Cat #62758-13-8, Sigma) and Diaphorase (40 μg/ml; Cat # D2197-300UN, Sigma) in buffer was added and incubated for 15 min. Readings were taken using a Synergy Neo Plate reader (BioTek, Winooski) at single excitation of 540 nm and emission at 590 nm respectively.
The % (percent) activity of test samples was calculated as (Sample−Min)×100/(Max−Min). [Max: DMSO control, complete reaction with enzyme with DMSO and Min: No enzyme with DMSO]. Percent inhibition (100−% activity) was fitted to the “four-parameter logistic model” in XLfit for determination of IC50 values.

T1 sequence (O75874 whole entry R132H): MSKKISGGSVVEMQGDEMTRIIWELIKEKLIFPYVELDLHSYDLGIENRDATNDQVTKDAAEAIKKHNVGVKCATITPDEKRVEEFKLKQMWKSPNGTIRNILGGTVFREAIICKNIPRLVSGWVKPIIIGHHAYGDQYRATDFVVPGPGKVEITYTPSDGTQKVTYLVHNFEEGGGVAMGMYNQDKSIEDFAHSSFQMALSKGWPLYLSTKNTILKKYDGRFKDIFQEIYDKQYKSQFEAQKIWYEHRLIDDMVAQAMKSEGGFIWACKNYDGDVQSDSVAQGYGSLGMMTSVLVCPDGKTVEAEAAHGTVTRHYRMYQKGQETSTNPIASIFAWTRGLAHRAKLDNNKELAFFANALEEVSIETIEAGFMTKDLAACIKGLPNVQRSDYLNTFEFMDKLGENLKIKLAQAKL
T3 sequence (O75874 whole entry): as the sequence (O75874 whole entry R132H) above, with H132R counted along it

Row | Compound | pIC50 (IDH1 mutant (R132H)) | pIC50 (IDH2 mutant (R140Q)) | pIC50 (IDH1-WT)
1 | CC(C)[C@H]1COC(=O)N1c1ncnc(N[C@@H](C)c2ccc(-c3ccc(C(F)(F)F)cc3)cn2)n1 [Compound 1.4, (S)-4-isopropyl-3-(4-((S)-1-(5-(4-(trifluoromethyl)phenyl)pyridin-2-yl)ethylamino)-1,3,5-triazin-2-yl)oxazolidin-2-one] | 5.48 | < 4.30 | < 4.52
2 | CC(C)[C@H]1COC(=O)N1c1ncnc(N[C@@H](C)c2ccc(Cl)c(Cl)c2)n1 [Compound 1.7, (S)-3-(4-((S)-1-(3,4-dichlorophenyl)ethylamino)-1,3,5-triazin-2-yl)-4-isopropyloxazolidin-2-one] | 5.54 | < 4.30 | < 4.52
3 | CC[C@H]1COC(=O)N1c1nc(C)nc(N[C@@H](C)c2ccc(Sc3ccc(F)cc3)cc2)n1 [Compound 1.92, (S)-4-ethyl-3-(4-((S)-1-(4-(4-fluorophenylthio)phenyl)ethylamino)-6-methyl-1,3,5-triazin-2-yl)oxazolidin-2-one] | 6.13 | < 4.30 | < 4.30
4 | CC[C@H]1COC(=O)N1c1nc(C)nc(N[C@@H](C)c2ccc(Oc3ccc(F)cc3Br)cc2)n1 [Compound 1.78, (S)-3-(4-((S)-1-(4-(2-bromo-4-fluorophenoxy)phenyl)ethylamino)-6-methyl-1,3,5-triazin-2-yl)-4-ethyloxazolidin-2-one] | 6.36 | < 4.30 | < 4.30
5 | CC(C)[C@H]1COC(=O)N1c1ncnc(N[C@@H](C)c2cn(-c3ccc(C(F)(F)F)cc3)cn2)n1 [Compound 1.5, (S)-4-isopropyl-3-(4-((S)-1-(1-(4-(trifluoromethyl)phenyl)-1H-imidazol-4-yl)ethylamino)-1,3,5-triazin-2-yl)oxazolidin-2-one] | 6.24 | < 4.30 | < 4.52
6 | CC[C@H]1COC(=O)N1c1nc(C)nc(N[C@@H](C)c2ccc(Oc3ccccc3)c(F)c2)n1 [Compound 1.84, (S)-4-ethyl-3-(4-((S)-1-(3-fluoro-4-phenoxyphenyl)ethylamino)-6-methyl-1,3,5-triazin-2-yl)oxazolidin-2-one] | 6.21 | < 4.30 | < 4.30
7 | COc1nc(N[C@@H](C)c2ccc(Oc3ccccc3)cc2)nc(N2C(=O)OC[C@@H]2C(C)C)n1 [Compound 1.31, (S)-4-isopropyl-3-(4-methoxy-6-((S)-1-(4-phenoxyphenyl)ethylamino)-1,3,5-triazin-2-yl)oxazolidin-2-one] | 6.31 | < 4.30 | < 4.52
8 | CC(C)[C@H]1COC(=O)N1c1ncnc(N[C@@H](C)c2cn(-c3ccc(Cl)cc3)cn2)n1 [Compound 1.13, (S)-3-(4-((S)-1-(1-(4-chlorophenyl)-1H-imidazol-4-yl)ethylamino)-1,3,5-triazin-2-yl)-4-isopropyloxazolidin-2-one] | 6.11 | < 4.30 | < 4.52
9 | CC(C)[C@H]1COC(=O)N1c1ncnc(NCc2ccc(Oc3ccccc3)cc2)n1 [Compound 1.28, (S)-4-isopropyl-3-(4-(4-phenoxybenzylamino)-1,3,5-triazin-2-yl)oxazolidin-2-one] | 5.34 | < 4.30 | < 4.30
10 | CC(C)[C@H]1COC(=O)N1c1ncnc(N[C@@H](C)c2ccc(Oc3ccccc3)cn2)n1 [Compound 1.19, (S)-4-isopropyl-3-(4-((S)-1-(5-phenoxypyridin-2-yl)ethylamino)-1,3,5-triazin-2-yl)oxazolidin-2-one] | 5.78 | < 4.30 | < 4.30
11 | CC[C@@H](Nc1ncnc(N2C(=O)OC[C@@H]2C(C)C)n1)c1ccc(Oc2ccccc2)cc1 [Compound 1.34, (S)-4-isopropyl-3-(4-((R)-1-(4-phenoxyphenyl)propylamino)-1,3,5-triazin-2-yl)oxazolidin-2-one] | < 4.52 | < 4.30 | < 4.52
12 | C[C@H](Nc1ncnc(N2C(=O)OC[C@@H]2c2ccccc2)n1)c1cn(-c2ccc(C(F)(F)F)cc2)cn1 [Compound 1.26, (S)-4-phenyl-3-(4-((S)-1-(1-(4-(trifluoromethyl)phenyl)-1H-imidazol-4-yl)ethylamino)-1,3,5-triazin-2-yl)oxazolidin-2-one] | 5.52 | < 4.30 | < 4.30
13 | CC[C@H]1COC(=O)N1c1nc(C)nc(N[C@@H](C)c2cn(-c3ccc(C(F)(F)F)cc3)cn2)n1 [Compound 1.40, (S)-4-ethyl-3-(4-methyl-6-((S)-1-(1-(4-(trifluoromethyl)phenyl)-1H-imidazol-4-yl)ethylamino)-1,3,5-triazin-2-yl)oxazolidin-2-one] | 6.53 | < 4.30 | < 4.30
14 | CC(C)[C@H]1COC(=O)N1c1ncnc(N[C@@H](C)c2ccccc2)n1 [Compound 1.37, (S)-4-isopropyl-3-(4-((S)-1-phenylethylamino)-1,3,5-triazin-2-yl)oxazolidin-2-one] | 4.71 | < 4.30 | < 4.30
15 | CC[C@H](Nc1ncnc(N2C(=O)OC[C@@H]2C(C)C)n1)c1ccc(Oc2ccccc2)cc1 [Compound 1.35, (S)-4-isopropyl-3-(4-((S)-1-(4-phenoxyphenyl)propylamino)-1,3,5-triazin-2-yl)oxazolidin-2-one] | 6.06 | < 4.30 | < 4.52
16 | CC[C@H]1COC(=O)N1c1nc(C)nc(N[C@@H](C)c2ccc(Oc3ccc4ccccc4c3)cc2)n1 [Compound 1.94, (S)-4-ethyl-3-(4-methyl-6-((S)-1-(4-(naphthalen-2-yloxy)phenyl)ethylamino)-1,3,5-triazin-2-yl)oxazolidin-2-one] | 6.28 | < 4.30 | < 4.30
17 | Cc1nc(N[C@@H](C)c2ccc(Oc3ccccc3)cc2)nc(N2C(=O)OC[C@@H]2C(C)C)n1 [Compound 1.27, (S)-4-isopropyl-3-(4-methyl-6-((S)-1-(4-phenoxyphenyl)ethylamino)-1,3,5-triazin-2-yl)oxazolidin-2-one] | 6.40 | < 4.30 | < 4.30
18 | CC[C@H]1COC(=O)N1c1ncnc(N[C@@H](C)c2ccc(Oc3ccccc3)cc2)n1 [Compound 1.29, (S)-4-ethyl-3-(4-((S)-1-(4-phenoxyphenyl)ethylamino)-1,3,5-triazin-2-yl)oxazolidin-2-one] | 6.31 | < 4.30 | < 4.30
19 | CC(C)[C@H]1COC(=O)N1c1ncnc(N[C@@H](C)c2cc3cc(Cl)ccc3[nH]c2=O)n1 [Compound 1.23, (S)-3-(4-((S)-1-(6-chloro-2-oxo-1,2-dihydroquinolin-3-yl)ethylamino)-1,3,5-triazin-2-yl)-4-isopropyloxazolidin-2-one] | 6.44 | < 4.30 | < 4.30

From patent publication US20200206233A1 (INTEGRAL BIOSCIENCES PRIVATE LIMITED, priority 2018, published 2020)
